Assay results reported in patent US5808137A, “Chalcones and esters thereof with antiproliferative activity in uterus, ovary and breast tumors” (Indena S.p.A., priority 1994, dated 1998).
pIC50, pKd: −log10 of the molar value. Where two headings read alike, the source gives them in different places.

Experiments:
[1] = tested on: estrogen receptors of type II; assay: Binding affinity to estrogen receptors of type II (displacement of labelled estradiol in tumour cells); conditions: for pIC50: read-out: IC50 *** Concentration giving a 50% displacement of labelled estradiol (40 nM) from the receptor, labelled estradiol 40 nM; for affinity to estrogen receptors of type II: result in words
Protocol: (§1) The evaluation of the estrogen receptor binding has been carried out on tumour cells of ovary and other organs. Cells were growth in a monolayer culture on the minimum essential medium added with calf serum and with 200 units/ml of penicillin to maintain the medium sterile. In order to make the tests reproducible, the cells were trypsinated every week and placed on plates at a density of […] and incubated at 37° C. under air atmosphere containing 5% CO2 and humidity. […] After 24 hours the substrate was replaced with fresh substrate and the chalcones dissolved in absolute ethanol were added. […] The treatment described above was repeated at 24 hours time intervals during the 72 hours time of the test. […] At the end of the incubation time, the cells were quickly washed with fresh substrate and incubated for 30 minutes with 1M NaOH. The radioactivity was measured by means of a scintiller and the binding specificity was calculated as the difference between the preparations containing or not diethylstilbestrol. The results are expressed as the number of binding sites per cell, according to conventional methods. The inhibition on the cell proliferation is evaluated by direct count of the cells comparing the growth of the controls versus that of the treated.

OVCA 433 cancer cells = assay: Antiproliferative activity on OVCA 433 cancer cells in vitro (direct cell count); format: cell-based; conditions: read-out: IC50 ** Concentration giving a 50% inhibition on cell proliferation
Protocol: as §1

[2] = tested on: uterus, ovary and breast tumour cell lines; assay: Antiproliferative activity on uterus, ovary and breast tumour cell lines; format: cell-based; conditions: result in words
Protocol: as §1

[3] = target: estrogen receptors of type II; conditions: read-out: apparent affinity dissociation constant KD for estradiol; type II sites, rat uterus; cited from earlier work
human leukemia cells = conditions: result in words; cited from earlier work
[4] = OVCA433, OVCA 433 cancer cells in vitro, 72 hours test

Compound	pIC50 [1]	pIC50 (OVCA 433 cancer cells; [4])	affinity to estrogen receptors of type II [1]	antiproliferative activity on uterus, ovary and breast tumour cell lines [2]	pKd [3]	inhibiting activity on the proliferation of human leukemia cells (human leukemia cells)	pIC50 (OVCA 433 cancer cells; OVCA433, 72 h)
C[C@]12CC[C@@H]3c4ccc(O)cc4CC[C@H]3[C@@H]1CC[C@@H]2O [estradiol]					7.70 to 8.00		
O=c1c(O)c(-c2ccc(O)c(O)c2)oc2cc(O)cc(O)c12 [quercetin]						some inhibiting activity	
CC(C)=CCOc1ccc(C(=O)CCc2ccccc2)c(O)c1 [Chalcone S9, Dihydrocordoin, reference compound]			no affinity				
O=C(/C=C/c1ccc(O)cc1)c1ccc(O)cc1O [Chalcone S6, 4,2',4'-trihydroxychalcone]	5.49		remarkable affinity	marked antiproliferative activity			5.30
CC(C)=CCOc1ccc(C(=O)/C=C/c2ccc(O)cc2)c(O)c1 [Chalcone S8, 4-hydroxycordoin, reference compound]			no affinity				

Now from value to compound, other results behind:

pIC50 [1]	pIC50 (OVCA 433 cancer cells; [4])	Compound	affinity to estrogen receptors of type II [1]	antiproliferative activity on uterus, ovary and breast tumour cell lines [2]	pKd [3]	inhibiting activity on the proliferation of human leukemia cells (human leukemia cells)	pIC50 (OVCA 433 cancer cells; OVCA433, 72 h)
4.97	4.77	COc1ccc(C(=O)/C=C/c2ccc(O)cc2)c(O)c1CC=C(C)C [Chalcone S2, 4-hydroxyderricin]	remarkable affinity	marked antiproliferative activity			
5.38	5.22	CC(C)=CCOc1ccc(C(=O)/C=C/c2ccccc2)c(O)c1 [Chalcone S7, Cordoin]	remarkable affinity	marked antiproliferative activity			
4.74	5.38	COc1ccc(C(=O)/C=C/c2ccccc2O)c(O)c1CC=C(C)C [Chalcone S3, 2-hydroxyderricin]	remarkable affinity	marked antiproliferative activity			
6.22	5.60	O=C(/C=C/c1ccccc1)c1ccc(O)cc1O [Chalcone S5, 2',4'-dihydroxychalcone]	remarkable affinity	marked antiproliferative activity			
5.92	5.92	CC(C)=CCc1c(O)ccc(C(=O)/C=C/c2ccccc2)c1O [Chalcone S1, Isocordoin]	remarkable affinity	marked antiproliferative activity			
4.92	5.30	COc1ccc(C(=O)/C=C/c2cccc(O)c2)c(O)c1CC=C(C)C [Chalcone S4, 3-hydroxyderricin]	remarkable affinity	marked antiproliferative activity			
